Results taken from US6608082B1, “Treatment of erectile dysfunction using isoquinoline compound melanocortin receptor ligands” (Lion Bioscience AG, priority 1998, dated 2003).
Read-outs that look alike come from different tables or passages of the source. Each block holds one molecule with its values, some of them ahead of it.

Legend:
MCR-4 = target: T1, MCR-4 (Homo sapiens, UniProt P32245); assay: Melanocortin receptor binding assay, competition with 125I-HP 467, HEK 293 cells expressing hMCR-4; conditions: for IC50: read-out: MC-4 IC50
T1 construct: expressed in transfected cells; host or cells: HEK 293
How it was run: (§1)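 Intact-cell competition binding, 2.5 hr at 37 °C, in PBS/10% calf serum/1 mM CaCl2; hMCR-4 cells at 4×10^3 per tube, hMCR-1 cells at 2×10^4 per tube. Filtration on BSA/CaCl2-soaked GF/B, cold 50 mM Tris pH 7.4 washes, scintillation count.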

MCR-1 = target: T2, MCR-1 (Homo sapiens, UniProt Q01726); assay: Melanocortin receptor binding assay, competition with 125I-HP 467, HEK 293 cells expressing hMCR-1; conditions: for IC50: read-out: MC-1 IC50; for % Disp. MC-1 10 μM: displacement of 125I-HP 467 at 10 μM isoquinoline compound
T2 construct: expressed in transfected cells; host or cells: HEK 293
How it was run: as §1

[1] = TRG 2408 and TRG 2409 libraries, inhibition of 125I-HP 467 binding
[2] = competition with 125I-HP 467, HEK 293 cells expressing MCR-4
[3] = competition with 125I-HP 467, HEK 293 cells expressing MCR-1
[4] = TRG 2406 and TRG 2407 libraries, inhibition of binding of 125I-HP 467
[5] = inhibition of binding of 125I-HP 467, HEK 293 cells expressing MCR-4, TRG 2414 library
[6] = inhibition of binding of 125I-HP 467, HEK 293 cells expressing MCR-1, TRG 2414 library
[7] = TRG 2414 library, inhibition of binding of 125I-HP 467, HEK 293 cells expressing MCR-4
[8] = TRG 2414 library, inhibition of binding of 125I-HP 467, HEK 293 cells expressing MCR-1
[9] = inhibition of binding of 125I-HP 467, HEK 293 cells expressing MCR-4
[10] = inhibition of binding of 125I-HP 467, HEK 293 cells expressing MCR-1

T1 sequence (P32245 whole entry): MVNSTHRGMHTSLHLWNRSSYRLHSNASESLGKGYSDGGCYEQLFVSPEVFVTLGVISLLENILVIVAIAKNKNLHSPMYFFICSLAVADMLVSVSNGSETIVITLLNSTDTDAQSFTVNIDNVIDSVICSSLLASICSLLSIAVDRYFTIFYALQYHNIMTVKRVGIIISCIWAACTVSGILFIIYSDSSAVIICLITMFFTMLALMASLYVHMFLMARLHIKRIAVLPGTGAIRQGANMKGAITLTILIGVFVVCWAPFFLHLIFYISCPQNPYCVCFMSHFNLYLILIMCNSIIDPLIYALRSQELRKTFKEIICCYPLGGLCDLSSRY
T2 sequence (Q01726 whole entry): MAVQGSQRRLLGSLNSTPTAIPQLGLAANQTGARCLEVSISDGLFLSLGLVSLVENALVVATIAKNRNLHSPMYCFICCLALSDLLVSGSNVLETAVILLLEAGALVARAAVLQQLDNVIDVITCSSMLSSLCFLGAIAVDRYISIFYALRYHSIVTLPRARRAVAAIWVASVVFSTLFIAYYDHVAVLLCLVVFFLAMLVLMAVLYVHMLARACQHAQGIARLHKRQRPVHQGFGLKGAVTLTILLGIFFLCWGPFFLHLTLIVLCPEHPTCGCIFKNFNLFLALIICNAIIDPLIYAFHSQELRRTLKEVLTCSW

Compound: CCCCNc1ccc(C2C(CN)c3ccccc3CN2CCCC(CN)NCc2ccccc2)cc1 (stereo not shown) [TRG 2409-224]
IC50 (MCR-4; [2]): 1.32 µM
IC50 (MCR-1; [3]): 0.12 µM

Compound: NCC(CCCCN1Cc2ccccc2C(CNCCc2cccc(Cl)c2)C1c1ccc(Cl)cc1Cl)NCCc1ccccc1 (stereo not shown) [TRG 2414-14]
IC50 (MCR-4; [5]): 2.92 µM
IC50 (MCR-1; [6]): 3.23 µM

Compound: NCC(CCCCN1Cc2ccccc2C(CNCc2ccccc2)C1c1ccc(Oc2ccccc2)cc1)NCCc1ccccc1 (stereo not shown) [TRG 2414-150]
IC50 (MCR-4; [5]): 16.3 µM
IC50 (MCR-1; [6]): 9.42 µM

Compound: CCCCNc1ccc(C2C(CN)c3ccccc3CN2CCCC(CN)NCc2ccc(Cl)cc2)cc1 (stereo not shown) [TRG 2409-225]
IC50 (MCR-4; [2]): 1.12 µM
IC50 (MCR-1; [3]): 0.12 µM

Compound: CCOc1ccccc1CNCC1c2ccccc2CN(CCCCC(CN)NCC(C)c2ccc(CC(C)C)cc2)C1c1ccccc1Br (stereo not shown) [Cmpd 208]
IC50 (MCR-4; [7]): 21.1 µM
IC50 (MCR-1; [8]): 34.4 µM

Compound: NCC(N)CCCCN1Cc2ccccc2C(CNCc2ccccc2)C1c1ccccc1Br (stereo not shown) [Cmpd 229]
IC50 (MCR-4; [7]): 1.29 µM
IC50 (MCR-1; [8]): 8.63 µM

Compound: CCNc1ccc(C2C(CNCCc3ccccc3)c3ccccc3CN2CCCC(CN)NCC2CC2CN(CC)CC)cc1 (stereo not shown) [TRG 2420-7]
IC50 (MCR-4; [9]): 1.81 µM
IC50 (MCR-1; [10]): 0.063 µM

Compound: CCCCCNc1ccc(C2C(CNCCc3ccccc3)c3ccccc3CN2CCCC(CN)NCCc2ccccc2)cc1 (stereo not shown) [TRG 2412-17]
IC50 (MCR-4; [9]): 1.15 µM
IC50 (MCR-1; [10]): 0.27 µM

Compound: CC(C)Cc1ccc(C(C)CNC(CN)CCCCN2Cc3ccccc3C(CNC3CCCCC3)C2c2ccc(Oc3ccccc3)cc2)cc1 (stereo not shown) [TRG 2414-160]
MC-4 IC50 (MCR-4; [5]): no fit
IC50 (MCR-1; [6]): 17.5 µM

Compound: CC(C)Cc1ccc(C(C)CNC(CN)CCCCN2Cc3ccccc3C(CNCc3ccccc3C(F)(F)F)C2c2ccc(Oc3ccccc3)cc2)cc1 (stereo not shown) [TRG 2414-124]
MC-4 IC50 (MCR-4; [5]): no fit
MC-1 IC50 (MCR-1; [6]): no fit

Compound: CCNc1ccc(C2C(CNCCc3ccccc3)c3ccccc3CN2CCCC(CN)NCc2ccccc2CN(CC)CC)cc1 (stereo not shown) [TRG 2420-15]
IC50 (MCR-4; [9]): 1.37 µM
IC50 (MCR-1; [10]): 0.07 µM

Compound: COc1ccc(CCNCC2c3ccccc3CN(CCCCC(CN)NCc3ccccc3)C2c2cc(C(F)(F)F)cc(C(F)(F)F)c2)cc1OC (stereo not shown) [TRG 2421-16]
IC50 (MCR-4; [9]): 0.36 µM
IC50 (MCR-1; [10]): 2.42 µM

Compound: CC(C)Cc1ccc(C(C)CNC(CN)CCCCN2Cc3ccccc3C(CNCc3ccccc3)C2c2ccc(Cl)cc2Cl)cc1 (stereo not shown) [TRG 2414-32]
IC50 (MCR-4; [5]): 32.1 µM
IC50 (MCR-1; [6]): 28.3 µM

Compound: CCNc1ccc(C2C(CNc3ccccc3OC)c3ccccc3CN2CCCCC(CN)NC)cc1 (stereo not shown) [TRG 2407-44]
IC50 (MCR-4; [4]): 10.4 µM
IC50 (MCR-1; [4]): 1.15 µM

The remaining lines, values ahead:

IC50 (MCR-4; [1]): 1.58 µM
IC50 (MCR-1; [1]): 1.72 µM
Compound: NCC(N)CCCCN1Cc2ccccc2C(CNC2CCCCC2)C1c1ccc(Cl)cc1Cl (stereo not shown) [TRG 2408-13]

IC50 (MCR-4; [4]): 0.69 µM
IC50 (MCR-1; [4]): 0.94 µM
Compound: CNC(CN)CCCCN1Cc2ccccc2C(CNCCc2ccccc2OC)C1c1ccc(Cl)cc1Cl (mixture of isomers) [TRG 2407-23]

IC50 (MCR-4; [1]): 6.1 µM
IC50 (MCR-1; [1]): 6.98 µM
Compound: CNC(CN)CCN1Cc2ccccc2C(CNC2CCCCC2)C1c1ccc(Cl)cc1Cl (stereo not shown) [TRG 2408-100]

IC50 (MCR-4; [9]): 1.76 µM
IC50 (MCR-1; [10]): 0.46 µM
Compound: CCOc1ccc(C2C(CN)c3ccccc3CN2CCCC(CN)NCCC2CCCCC2)cc1 (stereo not shown) [TRG 2415-10]

IC50 (MCR-4; [5]): 4.77 µM
IC50 (MCR-1; [6]): 5.01 µM
Compound: NCC(CCCCN1Cc2ccccc2C(CNC2CCCCC2)C1c1cccc(Oc2ccccc2)c1)NCc1ccccc1 (stereo not shown) [TRG 2414-119]

IC50 (MCR-4; [7]): 6.59 µM
IC50 (MCR-1; [8]): 1.64 µM
Compound: CCCOc1ccc(C2C(CNC3CCCCCC3)c3ccccc3CN2CCCCC(N)CN)cc1 (stereo not shown) [Cmpd 193]

IC50 (MCR-4; [4]): 10.8 µM
IC50 (MCR-1; [4]): 4.48 µM
Compound: CCNc1ccc(C2C(CNc3ccc(Cl)cc3)c3ccccc3CN2CCCCC(CN)NC)cc1 (stereo not shown) [TRG 2407-48]

IC50 (MCR-4; [4]): 0.54 µM
IC50 (MCR-1; [4]): 0.91 µM
Compound: CNC(CN)CCCCN1Cc2ccccc2C(CNC(C)C)C1c1ccc(Cl)cc1Cl (stereo not shown) [TRG 2407-37]

IC50 (MCR-4; TRG 2405 section, inhibition of binding of 125I-HP 467, HEK 293 cells expressing MCR-4): 20.8 µM
IC50 (MCR-1; TRG 2405 section, inhibition of binding of 125I-HP 467, HEK 293 cells expressing MCR-1): 8.66 µM
% Disp. MC-1 10 μM (MCR-1; first of duplicate): 30.8%
% Disp. MC-1 10 μM (MCR-1; second of duplicate): 52.9%
Compound: NCCN1Cc2ccccc2C(CNC2CCCCC2)C1c1ccc([N+](=O)[O-])o1 (stereo not shown) [TRG 2405-80]

IC50 (MCR-4; [2]): 0.83 µM
IC50 (MCR-1; [3]): 0.23 µM
Compound: CCCCNc1ccc(C2C(CNC3CCCCC3)c3ccccc3CN2CCCCC(CN)NCC)cc1 (mixture of isomers) [TRG 2411-87]

IC50 (MCR-4; [2]): 1.73 µM
IC50 (MCR-1; [3]): 0.42 µM
Compound: NCC(CCCCN1Cc2ccccc2C(CNC2CCCCC2)C1c1ccc(-c2ccccc2)cc1)NCc1ccccc1 (stereo not shown) [TRG 2411-22]
